Results published in US20260028365A1 (BIOGEN MA INC., priority 2022, published 2026).
pIC50: −log10 of the molar value. Like-named read-outs stand apart in the source and are kept apart here.

Assays:
JH2 domain of human Tyk2 = JH2 domain of human Tyk2 (Homo sapiens (Human), UniProt P29597); assay: JH2 Biochemical Assay (TR-FRET probe displacement); type: binding
Tyk2 = Tyk2 (Homo sapiens (Human), UniProt P29597); assay: pSTAT4 Cell Assay (MSD, NK92 cells); type: cell-based
[1] = JH2 domain of human Tyk2, TR-FRET probe displacement
[2] = TR-FRET probe displacement, JH2 domain of human Tyk2
[3] = TR-FRET probe displacement, JH2 domain

JH2 domain of human Tyk2, sequence (P29597 575-876): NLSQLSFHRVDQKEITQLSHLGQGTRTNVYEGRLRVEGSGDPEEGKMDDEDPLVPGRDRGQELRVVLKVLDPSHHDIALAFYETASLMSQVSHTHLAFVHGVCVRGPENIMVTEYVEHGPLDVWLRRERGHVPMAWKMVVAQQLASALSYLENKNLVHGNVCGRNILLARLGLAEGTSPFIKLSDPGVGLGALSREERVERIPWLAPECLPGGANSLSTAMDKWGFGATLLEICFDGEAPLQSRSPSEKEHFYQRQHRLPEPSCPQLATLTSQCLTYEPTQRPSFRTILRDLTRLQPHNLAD
Tyk2, sequence (P29597 whole entry, the tested form may be a part): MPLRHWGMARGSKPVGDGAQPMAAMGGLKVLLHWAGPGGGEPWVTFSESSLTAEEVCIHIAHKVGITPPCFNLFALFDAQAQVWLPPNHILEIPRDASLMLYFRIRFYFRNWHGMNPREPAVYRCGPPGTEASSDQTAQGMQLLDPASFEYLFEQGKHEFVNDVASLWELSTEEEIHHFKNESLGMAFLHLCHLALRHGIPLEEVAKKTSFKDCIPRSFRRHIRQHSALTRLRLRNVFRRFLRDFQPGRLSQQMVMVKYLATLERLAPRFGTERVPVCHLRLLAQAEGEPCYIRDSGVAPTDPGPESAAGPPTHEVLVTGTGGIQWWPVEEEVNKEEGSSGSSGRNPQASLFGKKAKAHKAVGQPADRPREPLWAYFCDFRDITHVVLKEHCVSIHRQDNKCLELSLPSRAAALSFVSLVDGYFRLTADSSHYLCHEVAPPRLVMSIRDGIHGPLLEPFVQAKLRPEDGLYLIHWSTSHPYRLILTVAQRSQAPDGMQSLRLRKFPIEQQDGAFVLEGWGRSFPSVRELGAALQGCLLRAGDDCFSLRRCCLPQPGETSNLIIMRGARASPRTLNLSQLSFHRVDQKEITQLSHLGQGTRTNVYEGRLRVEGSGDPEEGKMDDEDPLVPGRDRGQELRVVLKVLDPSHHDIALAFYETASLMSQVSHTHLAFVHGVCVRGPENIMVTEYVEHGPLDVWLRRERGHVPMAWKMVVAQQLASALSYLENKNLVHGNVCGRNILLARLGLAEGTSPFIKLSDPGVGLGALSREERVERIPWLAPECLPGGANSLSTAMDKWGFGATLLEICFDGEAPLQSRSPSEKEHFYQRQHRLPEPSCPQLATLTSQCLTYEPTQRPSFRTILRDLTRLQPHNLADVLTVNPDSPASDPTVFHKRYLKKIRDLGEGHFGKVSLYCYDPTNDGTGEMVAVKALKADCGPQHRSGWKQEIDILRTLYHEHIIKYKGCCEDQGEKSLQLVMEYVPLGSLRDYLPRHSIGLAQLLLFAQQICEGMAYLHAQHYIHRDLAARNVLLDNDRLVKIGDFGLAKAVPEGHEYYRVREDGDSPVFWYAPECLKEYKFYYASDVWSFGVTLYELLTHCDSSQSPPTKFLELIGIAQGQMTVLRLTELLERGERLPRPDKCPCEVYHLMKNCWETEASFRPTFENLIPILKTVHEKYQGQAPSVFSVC

Row | Compound | pIC50 (JH2 domain of human Tyk2; [1]) | pIC50 (Tyk2; MSD) | pIC50 (JH2 domain of human Tyk2; [2]) | pIC50 (JH2 domain of human Tyk2; [3]) | pIC50 (Tyk2)
1 | COCCOc1cc(Nc2cc(NC(C)=O)ncc2-c2ccncn2)nc(C(C)(F)F)n1 [Example 585, N-(4-((2-(1,1-difluoroethyl)-6-(2-methoxyethoxy)pyrimidin-4-yl)amino)-5-(pyrimidin-4-yl)pyridin-2-yl)acetamide] | ≥ 8.00 | ≥ 8.00 | – | – | –
2 | COCn1ncc(-c2cnc(NC(C)=O)cc2Nc2ccnc(C(C)(F)F)n2)n1 [Example 711, N-(4-((2-(1,1-difluoroethyl)pyrimidin-4-yl)amino)-5-(2-(methoxymethyl)-2H-1,2,3-triazol-4-yl)pyridin-2-yl)acetamide] | ≥ 8.00 | 7.00 to 8.00 | – | – | –
3 | COCc1cnc(-c2cnc(NC(C)=O)cc2Nc2cc(C)nc(C(C)(F)F)n2)s1 [Example 231, N-(4-((2-(1,1-difluoroethyl)-6-methylpyrimidin-4-yl)amino)-5-(5-(methoxymethyl)thiazol-2-yl)pyridin-2-yl)acetamide] | – | ≥ 8.00 | ≥ 8.00 | – | –
4 | CC(=O)Nc1cc(Nc2cc(C)nc(C(C)(F)F)n2)c(-c2cc3n(n2)CCN(C)C3=O)cn1 [Example 541, N-(4-((2-(1,1-difluoroethyl)-6-methylpyrimidin-4-yl)amino)-5-(5-methyl-4-oxO4,5,6,7-tetrahydropyrazolo[1,5-a]pyrazin-2-yl)pyridin-2-yl)acetamide] | ≥ 8.00 | 7.00 to 8.00 | – | – | –
5 | CC(=O)Nc1cc(Nc2cc(C)nc(C(C)(F)F)n2)c(-c2ccc([C@H]3CN(C)CCO3)cn2)cn1 (single isomer, unassigned) [Example 644, (S)-N-(4′-((2-(1,1-difluoroethyl)-6-methylpyrimidin-4-yl)amino)-5-(4-methylmorpholin-2-yl)-[2,3′-bipyridin]-6′-yl)acetamide or (R)-N-(4′-((2-(1,1-difluoroethyl)-6-methylpyrimidin-4-yl)amino)-5-(4-methylmorpholin-2-yl)-[2,3′-bipyridin]-6′-yl)acetamide] | ≥ 8.00 | ≥ 8.00 | – | – | –
6 | COCCOc1cnc(NC(C)=O)cc1Nc1cc(C)nc(C(C)(F)CF)n1 (stereo not shown) [Example 81, N-(4-((2-(1,2-difluoropropan-2-y1)-6-methylpyrimidin-4-yl)amino)-5-(2-methoxyethoxy)pyridin-2-yl)acetamide] | – | 7.00 to 8.00 | ≥ 8.00 | – | –
7 | CC(=O)Nc1cc(Nc2ccnc(C(C)(C)F)n2)c(-c2cc(C)ncn2)cn1 [Example 198, N-(4-((2-(2-fluoropropan-2-yl)pyrimidin-4-yl)amino)-5-(6-methylpyrimidin-4-yl)pyridin-2-yl)acetamide] | – | 7.00 to 8.00 | ≥ 8.00 | – | –
8 | COc1cnc(NC(C)=O)cc1Nc1nc(C)cc(C(F)(F)F)n1 [Example 436, N-(5-methoxy-4-((4-methyl-6-(trifluoromethyl)pyrimidin-2-yl)amino)pyridin-2-yl)acetamide] | 6.00 to 7.00 | ≤ 6.00 | – | – | –
9 | CC(=O)Nc1cc(Nc2cc(C)nc(C(C)(F)F)n2)c(-c2ncc(C#N)cc2F)cn1 [Example 632, N-(5-cyanO4′-((2-(1,1-difluoroethyl)-6-methylpyrimidin-4-yl)amino)-3-fluorO[2,3′-bipyridin]-6′-yl)acetamide] | 7.00 to 8.00 | ≤ 6.00 | – | – | –
10 | CC(=O)Nc1cc(Nc2cc(C)nc(C(C)(F)F)n2)c(OCc2ccccc2)cn1 [Example 30, N-(5-(benzyloxy)-4-((2-(1,1-difluoroethyl)-6-methylpyrimidin-4-yl)amino)pyridin-2-yl)acetamide] | – | ≥ 8.00 | ≥ 8.00 | – | –
11 | CC(=O)Nc1cc(Nc2cc(C)nc(C(C)(F)F)n2)c(-c2cnc(C#N)cn2)cn1 [Example 838, N-(5-(5-cyanopyrazin-2-yl)-4-((2-(1,1-difluoroethyl)-6-methylpyrimidin-4-yl)amino)pyridin-2-yl)acetamide] | – | – | – | ≥ 8.00 | 7.00 to 8.00
12 | CC(=O)Nc1cc(Nc2cc(C)nc(C(C)(F)F)n2)c(-c2cccc(F)n2)cn1 [Example 623, N-(4′-((2-(1,1-difluoroethyl)-6-methylpyrimidin-4-yl)amino)-6-fluorO[2,3′-bipyridin]-6′-yl)acetamide] | ≥ 8.00 | ≥ 8.00 | – | – | –
13 | COCCOc1cnc(NC(C)=O)cc1Nc1cc(C)nc(C(C)CF)n1 (stereo not shown) [Example 82, N-(4-((2-(1-fluoropropan-2-yl)-6-methylpyrimidin-4-yl)amino)-5-(2-methoxyethoxy)pyridin-2-yl)acetamide] | – | 7.00 to 8.00 | ≥ 8.00 | – | –
14 | CC(=O)Nc1cc(Nc2cc(C)nc(C(C)(F)F)n2)c(-c2ccc([C@@H]3CN(C)CCO3)cn2)cn1 (single isomer, unassigned) [Example 643, (R)-N-(4′-((2-(1,1-difluoroethyl)-6-methylpyrimidin-4-yl)amino)-5-(4-methylmorpholin-2-yl)-[2,3′-bipyridin]-6′-yl)acetamide or (S)-N-(4′-((2-(1,1-difluoroethyl)-6-methylpyrimidin-4-yl)amino)-5-(4-methylmorpholin-2-yl)-[2,3′-bipyridin]-6′-yl)acetamide] | ≥ 8.00 | ≥ 8.00 | – | – | –
15 | CCc1cc(Nc2cc(NC(C)=O)ncc2-c2ccc(=O)[nH]n2)nc(C(C)(F)F)n1 [Example 221, N-(4-((2-(1,1-difluoroethyl)-6-ethylpyrimidin-4-yl)amino)-5-(6-oxo-1,6-dihydropyridazin-3-yl)pyridin-2-yl)acetamide] | – | ≤ 6.00 | 7.00 to 8.00 | – | –
16 | CC(=O)Nc1cc(Nc2cccc(C(C)(F)F)n2)c(OCCO)cn1 [Example 140, N-(4-((6-(1,1-difluoroethyl)pyridin-2-yl)amino)-5-(2-hydroxyethoxy)pyridin-2-yl)acetamide] | – | ≥ 8.00 | ≥ 8.00 | – | –
17 | COc1cnc(NC(C)=O)cc1Nc1cc(-c2cnn(C3CC3)c2)nc(C(C)(F)F)n1 [Example 376, N-(4-((6-(1-cyclopropyl-1H-pyrazol-4-yl)-2-(1,1-difluoroethyl)pyrimidin-4-yl)amino)-5-methoxypyridin-2-yl)acetamide] | 7.00 to 8.00 | 7.00 to 8.00 | – | – | –
18 | CC(=O)Nc1cc(Nc2cc(C)nc(C(C)(F)F)n2)c(-c2cccc(N3CCOCC3)n2)cn1 [Example 628, N-(4′-((2-(1,1-difluoroethyl)-6-methylpyrimidin-4-yl)amino)-6-morpholinO[2,3′-bipyridin]-6′-yl)acetamide] | ≥ 8.00 | ≥ 8.00 | – | – | –
19 | CC(=O)Nc1cc(Nc2cc(C)nc(C34COC(C3)C4)n2)c(-c2ccc(C(C)F)cn2)cn1 (stereo not shown) [Example 577, N-(4′-((2-(2-oxabicyclo[2.1.1]hexan-4-yl)-6-methylpyrimidin-4-yl)amino)-5-(1-fluoroethyl)-[2,3′-bipyridin]-6′-yl)acetamide] | ≥ 8.00 | ≥ 8.00 | – | – | –
20 | CC(=O)Nc1cc(Nc2ccnc(C(C)(F)F)n2)c(-c2cc3n(n2)CCOC3)cn1 [Example 529, N-(4-((2-(1,1-difluoroethyl)pyrimidin-4-yl)amino)-5-(6,7-dihydrO4H-pyrazolo[5,1-c][1,4]oxazin-2-yl)pyridin-2-yl)acetamide] | ≥ 8.00 | ≥ 8.00 | – | – | –
21 | CC(=O)Nc1cc(Nc2cc(C)nc(C(C)(F)F)n2)c(-c2cn(C)c(C#N)n2)cn1 [Example 601, N-(5-(2-cyanO1-methyl-1H-imidazol-4-yl)-4-((2-(1,1-difluoroethyl)-6-methylpyrimidin-4-yl)amino)pyridin-2-yl)acetamide] | ≥ 8.00 | ≥ 8.00 | – | – | –
22 | CC(=O)Nc1cc(Nc2cc(C)nc(C(C)(F)F)n2)c(OC[C@]23CC[C@@H](CC2)O3)cn1 [Example 423, N-(5-(((1r,4r)-7-oxabicyclo[2.2.1]heptan-1-yl)methoxy)-4-((2-(1,1-difluoroethyl)-6-methylpyrimidin-4-yl)amino)pyridin-2-yl)acetamide] | ≥ 8.00 | 7.00 to 8.00 | – | – | –
23 | CC(=O)Nc1cc(Nc2cc(-c3cnn(C(C)C)c3)nc(C(C)(F)F)n2)c(O[C@H]2C[C@@H](F)C2)cn1 [Example 414, N-(4-((2-(1,1-difluoroethyl)-6-(1-isopropyl-1H-pyrazol-4-yl)pyrimidin-4-yl)amino)-5-((1s,3s)-3-fluorocyclobutoxy)pyridin-2-yl)acetamide] | ≥ 8.00 | ≥ 8.00 | – | – | –
24 | COc1nc(-c2cnc(NC(C)=O)cc2Nc2ccnc(C(C)(F)F)n2)cs1 [Example 712, N-(4-((2-(1,1-difluoroethyl)pyrimidin-4-yl)amino)-5-(2-methoxythiazol-4-yl)pyridin-2-yl)acetamide] | ≥ 8.00 | ≥ 8.00 | – | – | –
25 | CC(=O)Nc1cc(Nc2ccnc(C(C)(F)F)n2)c(-c2ccc(CN3CC4(CCOC4)C3)cn2)cn1 [Example 889, N-(5-((6-oxa-2-azaspiro[3.4]octan-2-yl)methyl)-4′-((2-(1,1-difluoroethyl)pyrimidin-4-yl)amino)-[2,3′-bipyridin]-6′-yl)acetamide] | – | – | – | ≥ 8.00 | ≥ 8.00
26 | CCc1cc(Nc2cc(NC(C)=O)ncc2-c2cn(CCOC)nn2)nc(C(C)(F)F)n1 [Example 262, N-(4-((2-(1,1-difluoroethyl)-6-ethylpyrimidin-4-yl)amino)-5-(1-(2-methoxyethyl)-1H-1,2,3-triazol-4-yl)pyridin-2-yl)acetamide] | – | ≥ 8.00 | ≥ 8.00 | – | –
27 | COCCOc1cnc(NC(C)=O)cc1Nc1cncc(C(C)(C)F)n1 [Example 439, N-(4-((6-(2-fluoropropan-2-yl)pyrazin-2-yl)amino)-5-(2-methoxyethoxy)pyridin-2-yl)acetamide] | ≥ 8.00 | 7.00 to 8.00 | – | – | –
28 | COc1cnc(NC(C)=O)cc1Nc1cc(O[C@H]2C[C@@H](F)C2)nc(C(C)(F)F)n1 [Example 461, N-(4-((2-(1,1-difluoroethyl)-6-((1s,3s)-3-fluorocyclobutoxy)pyrimidin-4-yl)amino)-5-methoxypyridin-2-yl)acetamide] | ≥ 8.00 | 7.00 to 8.00 | – | – | –
29 | CC(=O)Nc1cc(Nc2cc(C)nc(C(C)(F)F)n2)c(-c2cc(C(C)(C)O)n(C)n2)cn1 [Example 272, N-(4-((2-(1,1-difluoroethyl)-6-methylpyrimidin-4-yl)amino)-5-(5-(2-hydroxypropan-2-yl)-1-methyl-1H-pyrazol-3-yl)pyridin-2-yl)acetamide] | – | ≥ 8.00 | ≥ 8.00 | – | –
